Experimental data reported in US20210024542A1 (Torcept Therapeutics, Inc., priority 2018, published 2021).

Tests used:
OVCAR3 = assay: OncoPanel cell proliferation assay, OVCAR3; details: for Cell Count Activity Area: OVCAR3, scale 0-10
Method: (§6) Cells were seeded into 384-well plates and incubated in a humidified atmosphere of 5% CO2 at 37° C. Compounds were added the day following cell seeding. At the same time, a time zero untreated cell plate was generated. After a 3-day incubation period, cells were fixed and stained to allow fluorescence imaging of nuclei. Compounds (1 mM stock solutions) were serially diluted in half-log steps from the highest test concentration (1 micromol), and assayed over 10 concentrations with a maximum assay concentration of 0.1% DMSO. Automated fluorescence microscopy was carried out using a Molecular Devices ImageXpress Micro XL high-content imager, and images were collected with a 4× objective. 16-bit TIFF images were acquired and analyzed with MetaXpress 5.1.0.41 software.
(§7) GI50 is the concentration needed to reduce the observed growth by half (midway between the curve maximum and the time zero value). […] In rare instances, values <0 or >10 may be observed. […] Curve-fitting, calculations, and report generation was performed using a custom data reduction engine and MathIQ based software (AIM).

SW579 = assay: OncoPanel cell proliferation assay, SW579; format: cell-based, human; details: for Cell Count Activity Area: SW579, scale 0-10
Method: (§1) Cells were grown in RPMI 1640, 10% FBS, 2 mM L-alanyl-L-glutamine, 1 mM Na pyruvate, or a special medium. Cells were seeded into 384-well plates and incubated in a humidified atmosphere of 5% CO2 at 37° C. Compounds were added the day following cell seeding. At the same time, a time zero untreated cell plate was generated. After a 3-day incubation period, cells were fixed and stained to allow fluorescence imaging of nuclei. Compounds (1 mM stock solutions) were serially diluted in half-log steps from the highest test concentration ([…]), and assayed over 10 concentrations with a maximum assay concentration of 0.1% DMSO. Automated fluorescence microscopy was carried out using a Molecular Devices ImageXpress Micro XL high-content imager, and images were collected with a 4× objective. 16-bit TIFF images were acquired and analyzed with MetaXpress 5.1.0.41 software.
(§2) Cell proliferation was measured by the fluorescence intensity of an incorporated nuclear dye. The output is referred to as the relative cell count, where the measured nuclear intensity is transformed to percent of control (POC) using the following formula: […]
(§3) Cellular response parameters were calculated using nonlinear regression to a sigmoidal single-site dose response model:
(§4) Where y is a response measured at concentration x, A and B are the lower and upper limits of the response, C is the concentration at the response midpoint (EC50), and D is the Hill Slope (Ref. 1).
(§5) EC50 is the test compound concentration at the curve inflection point or half the effective response (parameter C of the fitted curve solution). GI50 is the concentration needed to reduce the observed growth by half (midway between the curve maximum and the time zero value). “Cell Count Activity Area” is an estimate of the integrated area above the curve (Barretina, et al. The Cancer Cell Line Encyclopedia enables predictive modelling of anticancer drug sensitivity. Nature 483: 603-607). […] In rare instances, values <0 or >10 may be observed. […] Curve-fitting, calculations, and report generation was performed using a custom data reduction engine and MathIQ based software (AIM).

CAMA-1 = assay: OncoPanel cell proliferation assay, CAMA-1; details: for Cell Count Activity Area: CAMA-1, scale 0-10
Method: as §6, §7

A431 = assay: OncoPanel cell proliferation assay, A431; format: cell-based, human; details: for Cell Count Activity Area: A431, scale 0-10
Method: as §1, §2, §3, §4, §5

AsPC-1 = assay: OncoPanel cell proliferation assay, AsPC-1; details: for Cell Count Activity Area: AsPC-1, scale 0-10
Method: as §6, §7

SK-NEP-1 = assay: OncoPanel cell proliferation assay, SK-NEP-1; details: SK-NEP-1, scale 0-10
Method: as §6, §7

Hs 852.T = assay: OncoPanel cell proliferation assay, Hs 852.T; format: cell-based, human; details: for Cell Count Activity Area: scale 0-10
Method: as §1, §2, §3, §4, §5

SK-N-AS = assay: OncoPanel cell proliferation assay, SK-N-AS; format: cell-based, human; details: for Cell Count Activity Area: scale 0-10
Method: as §1, §2, §3, §4, §5

NCI-H510A = assay: OncoPanel cell proliferation assay, NCI-H510A; format: cell-based, human; details: for Cell Count Activity Area: scale 0-10
Method: as §1, §2, §3, §4, §5

TF-1 = assay: OncoPanel cell proliferation assay, TF-1; format: cell-based, human; details: for Cell Count Activity Area: TF-1, scale 0-10
Method: as §1, §2, §3, §4, §5

CRO-AP2 = assay: OncoPanel cell proliferation assay, CRO-AP2; format: cell-based, human; details: CRO-AP2, scale 0-10
Method: as §1, §2, §3, §4, §5

SCaBER = assay: OncoPanel cell proliferation assay, SCaBER; format: cell-based, human; details: scale 0-10
Method: as §1, §2, §3, §4, §5

[1] = Homo sapiens, 72 h, 3-day incubation, read-out: Cell Count EC50
[2] = Homo sapiens, 72 h, 3-day incubation, read-out: Cell Count GI50
[3] = Homo sapiens, 72 h, 3-day incubation, read-out: Cell Count IC50

Row | Structure (SMILES) | Cell Count Activity Area (OVCAR3) | Cell Count Activity Area (SW579) | Cell Count Activity Area (CAMA-1) | Cell Count Activity Area (A431) | Cell Count Activity Area (AsPC-1) | Cell Count Activity Area (SK-NEP-1) | Cell Count Activity Area (Hs 852.T) | Cell Count Activity Area (SK-N-AS) | Cell Count Activity Area (NCI-H510A) | Cell Count Activity Area (TF-1) | Cell Count Activity Area (CRO-AP2) | Cell Count Activity Area (SCaBER) | other results
1 | CO[C@H]1C[C@@H]2CC[C@@H](C)[C@@](O)(O2)C(=O)C(=O)N2CCCC[C@H]2C(=O)O[C@H]([C@H](C)C[C@@H]2CC[C@@H](O)[C@H](OC)C2)CC(=O)[C@H](C)/C=C(\C)[C@@H](O)[C@@H](OC)C(=O)[C@H](C)C[C@H](C)/C=C/C=C/C=C/1C [Rapamycin, reference compound] | 2.08 | 4.77 | 4.07 | 0.28 | 1.48 | 4.22 | 1.43 | 3.58 | 1.63 | 1.52 | 6.22 | 5.25 | IC50 (OVCAR3; Homo sapiens, OVCAR-3, 72 h, read-out: Cell Count IC50): > 1000 nM; IC50 (SW579; Homo sapiens, 72 h, SW579, 3-day incubation, read-out: Cell Count IC50): > 1000 nM; EC50 (A431; Homo sapiens, A-431, 72 h, A431, 3-day incubation, read-out: Cell Count EC50): > 1000 nM; GI50 (A431; Homo sapiens, A-431, 72 h, A431, 3-day incubation, read-out: Cell Count GI50): > 1000 nM; IC50 (A431; Homo sapiens, A-431, 72 h, A431, 3-day incubation, read-out: Cell Count IC50): > 1000 nM; EC50 (AsPC-1; Homo sapiens, ASPC1, 72 h, read-out: Cell Count EC50): > 1000 nM; GI50 (AsPC-1; Homo sapiens, ASPC1, 72 h, read-out: Cell Count GI50): > 1000 nM; IC50 (AsPC-1; Homo sapiens, ASPC1, 72 h, read-out: Cell Count IC50): > 1000 nM; EC50 (Hs 852.T; [1]): > 1000 nM; GI50 (Hs 852.T; [2]): > 1000 nM; IC50 (Hs 852.T; [3]): > 1000 nM; IC50 (SK-N-AS; [3]): > 1000 nM; EC50 (NCI-H510A; [1]): > 1000 nM; GI50 (NCI-H510A; [2]): > 1000 nM; IC50 (NCI-H510A; [3]): > 1000 nM; EC50 (TF-1; Homo sapiens, 72 h, TF-1, 3-day incubation, read-out: Cell Count EC50): > 1000 nM; GI50 (TF-1; Homo sapiens, 72 h, TF-1, 3-day incubation, read-out: Cell Count GI50): > 1000 nM; IC50 (TF-1; Homo sapiens, 72 h, TF-1, 3-day incubation, read-out: Cell Count IC50): > 1000 nM
2 | CN[C@@H]1C[C@H]2O[C@@](C)([C@@H]1OC)n1c3ccccc3c3c4c(c5c6ccccc6n2c5c31)C(=O)NC4 [Staurosporine, reference compound] | 3.41 | 6.09 | 2.99 | 5.64 | 3.28 | 2.78 | 3.16 | 4.83 | 1.68 | 3.31 | 3.99 | 6.03 | EC50 (SW579; Homo sapiens, 72 h, SW579, 3-day incubation, read-out: Cell Count EC50): 0.52 nM; GI50 (CAMA-1; Homo sapiens, CAMA-1, 72 h, read-out: Cell Count GI50): 12 nM; IC50 (CAMA-1; Homo sapiens, CAMA-1, 72 h, read-out: Cell Count IC50): 99 nM; EC50 (SK-N-AS; [1]): 1.7 nM
